Row | Compound | melting point [°C]
1 | COc1c(C)c(N2CCN(c3ccc4c(c3)OCCO4)CC2)c(C)c2c1OC(C)(C)C2 | 167 to 168
2 | C#CCn1cc(C=O)c([N+](=O)[O-])c1 | 120
3 | Nc1n[nH]cc1C(=O)c1ccco1 | 153 to 155
4 | CC12CCC1(C)C(=O)OC2=O (stereo unspecified) | 84 to 86
5 | CN(c1cccc2cc(-c3nccs3)[nH]c12)S(=O)(=O)c1ccsc1C(N)=O | 269
6 | CC(C)n1c(C(F)(F)F)cnc1-c1ccc(O)cc1 | 249 to 250
7 | Fc1cc2c(Nc3ccc(OCc4ccccn4)c(Cl)c3)ncnc2cn1 | 216 to 219
8 | C=CCCC(C)(NC(c1ccccc1)c1ccccc1)P(O)O (stereo unspecified) | 180
9 | Nc1nc2c([nH]c(=O)n2Cc2cccs2)c(=O)[nH]1 | > 300
10 | Clc1ccc2nc(-c3ccsc3)cn2n1 | 203 to 205
11 | CCOc1nc2ccccc2n(-c2ccc(Cl)cc2)c1=O | 244 to 246
12 | Cc1ccc(F)cc1C(=O)Nc1ccc(C(=O)N2CCc3cn[nH]c3-c3sccc32)cc1 | 310 to 312
13 | O=C(Nc1cc([N+](=O)[O-])cc([N+](=O)[O-])c1)c1cc(Br)ccc1O | 258 to 260
14 | CC(C)c1ccc(S(=O)(=O)Nc2ccc(N3CCC(NCC(O)COc4ccc(O)cc4)CC3)nc2)cc1 (stereo unspecified) | 75 to 78
15 | CC12CCC3c4ccc(C(=O)O)cc4CCC3C1CCC2C(=O)c1ccc(C(F)(F)F)cc1 (stereo unspecified) | 300 to 303
16 | CC(C)(C)OC(=O)N1CCN(c2cc(Cl)ccc2NC(=O)c2ccnc(Cl)c2)CC1 | 185 to 189
17 | C=CC(=O)Nc1ccc(C(=O)C[N+](=O)[O-])c(Cl)c1 | 140 to 144
18 | O=C(COc1cc(-c2ccc(Cl)cc2)nc2ccccc12)N1CCSCC1 | 117
19 | Cn1c(C(F)(F)F)cc(=O)n(-c2cc3c(cc2F)nc(C(F)(F)F)n3Cc2cccc(Cl)c2)c1=O | 91 to 93
20 | Cc1nc2c3c(c(C(=O)N4CCCC4)cc2n1C)CCC1(Cc2ccccc2C1)N3 | 263 to 264
21 | Nc1ccccc1NCCO | 105 to 106
22 | CN(c1cccc2cc(-c3ncc(CC(=O)N4CCOCC4)s3)[nH]c12)S(=O)(=O)c1cccs1 | 199 to 200
23 | CCOC(=O)C1=C(C)NC(N)=C(C(=O)OCC)C1c1ccccc1C(F)(F)F (stereo unspecified) | 156
24 | CC(=C(c1ccccc1)c1ccccc1)P(C1CCCCC1)C1CCCCC1 | 128 to 130

Row | Compound | melting point [°C]
25 | C#Cc1ccc2c(c1)CCC2=O | 157
26 | CC(=O)N1CC2CC2(c2ccccc2)C1 (stereo unspecified) | 63 to 65
27 | Cn1c(Br)nc2c1C(=O)N1CCN=C1N2Cc1ccc(Cl)cc1 | 206 to 207
28 | CCOCCN(CC)c1ccc(-c2ccc3c(c2)C=C(C(=O)Nc2ccc(CN(C)C4CCOCC4)cc2)CCS3(=O)=O)cc1 | 194 to 197
29 | O=c1oc(=O)n(Cc2ccccc2)c2ncccc12 | 168
30 | CCn1cc(-c2ccc([C@H](C)N3CC[C@](CC(C)(C)O)(c4ccccc4)OC3=O)cc2)ccc1=O | 167 to 168
31 | COc1ccc2c(c1)c(C(=O)CCC(=O)O)c(C)n2Cc1ccc(Br)cc1 | 215 to 217
32 | CN1c2ccccc2C2CCN(CCC(C(=O)N3CCCCCC3)c3ccccc3)CC21 (stereo unspecified) | 150
33 | O=C(O)c1ccc(OCCCO/N=C/c2ccc(C(F)(F)F)cc2)cc1NC(=O)c1ccccc1C(F)(F)F | 147 to 148
34 | N#CC(NC(=O)c1cccn2cc(-c3ccccc3)nc12)c1ccco1 (stereo unspecified) | 197 to 199
35 | COC(=O)c1nc(-c2sccc2[N+](=O)[O-])n(C)c(=O)c1OC(=O)C(C)(C)C | 159 to 161
36 | COC(=O)C1=C(C)NC(c2c(F)cc(F)cc2F)=NC1c1ccc(F)cc1Cl (stereo unspecified) | 112 to 114
37 | CN(C)C(=O)C1(n2ccc(-c3ccccc3)n2)CC1 | 96 to 99
38 | N#Cc1ccc(-n2c(N)nc3ccccc32)cc1-c1ccoc1 | 140 to 144
39 | COC(=O)CCn1c(C(=O)O)cc2ccccc21 | 118 to 120
40 | Cc1nc2c(N)nc3ccccc3c2n1CCCCS(C)=O (stereo unspecified) | 184 to 187
41 | CN(CCN1CCOCC1)c1noc2cc(O)ccc12 | 91 to 92
42 | Nc1nc2c(ncn2COCC(COC(=O)COc2ccccc2)OC(=O)COc2ccccc2)c(=O)[nH]1 (stereo unspecified) | 95 to 100
43 | O=C(O)c1cc(-c2ccc(OC(F)(F)F)cc2)c2c3c(ccc2c1)OCO3 | 296 to 300
44 | O=c1[nH]c2ccccc2n1CCCN1CCN(c2n[nH]c3ccccc23)CC1 | 178 to 180
45 | CS(=O)(=O)N1C[C@H](S)C[C@H]1COc1ccccc1 | 78 to 79
46 | CC(=O)NCC1CN(c2ccc(N3CCN(c4nnc(C#N)s4)C(F)C3)cc2)C(=O)O1 (stereo unspecified) | 200 to 202
47 | O=C(c1ccc(O)c(Cl)c1)N1CC=CCC1 | 186 to 189
48 | COc1ccc(-c2nc3cc(Cl)c(Cl)cc3n2C(=O)OCc2ccccc2)cc1NS(=O)(=O)c1cccs1 | 195 to 198

Row | Compound | melting point [°C]
49 | Cc1cc(-c2ccc(Cl)cc2)nc(-n2cnc(-c3cccc(S(N)(=O)=O)c3)c2)n1 | 275
50 | CCOCc1ccc2oc(C(=O)OCC)c(C)c2c1O | 97 to 98
51 | COc1ncc(Cl)cc1C(O)C=Cc1ccc(Cl)cc1 (stereo unspecified) | 135 to 140
52 | O=C1CCC(=O)N1c1ncccn1 | 148 to 150
53 | Cc1nc(C(=O)NC2CC2)c2n1-c1ccc(Cl)cc1C(c1ccccc1F)=NC2 | 196 to 197
54 | CC(C)(C)c1ccccc1C(O)(c1ccccc1)c1ncc[nH]1 (stereo unspecified) | 185 to 186
55 | Cc1cc(C(=O)O)n(-c2ncc(Cl)cc2Cl)n1 | 227 to 228
56 | Cc1nc(C(=O)Nc2cccc(Oc3ccc4nc(NC(=O)C5CC5)cn4n3)c2)c(C)o1 | 224
57 | COc1ccc(C(=O)NC(=O)Nc2cccc3c2CC(=O)N3)cc1 | 276 to 279
58 | Cc1ccc(C)c(OCc2ccccc2C(=O)O)c1 | 162 to 163
59 | COC(=O)Cc1ccc(-c2ccc(OCCN3CCOCC3)cc2)cn1 | 135 to 137
60 | NC(=S)N1CCN(c2ccccc2)CC1 | 178 to 179
61 | Cc1cc(-n2cnn(Cc3ccc(F)cc3)c2=O)sc1C(=O)NCc1ncco1 | 163 to 165
62 | CC(C)(C)c1cc(CCN2CCN(CCc3ccc(CC(=O)O)cc3)CC2)cc(C(C)(C)C)c1O | 210 to 213
63 | CCOC(=O)Cc1nc(-c2ccc(F)cc2)oc1CC(C)C | 60 to 61
64 | O=C(Cc1cccc([N+](=O)[O-])c1)c1c(O)c2cccnc2n(-c2ccccc2)c1=O | 157 to 161
65 | C=CCNC(=O)N1CC(Oc2cccc(Br)c2)C1 | 90 to 92
66 | COc1ccc(CCNCC(O)c2ccc(OCc3ccccc3)c(OCc3ccccc3)c2)cc1OC (stereo unspecified) | 79 to 81
67 | Cc1cc(C2=C(C=CC3CC(O)CC(=O)O3)C(C)(C)CC(N3C(=O)CCC3=O)C2)ccc1F (stereo unspecified) | 71 to 77
68 | COc1ccc(-c2nc3n(c2-c2ccc(OC)cc2)C(F)C(F)(F)S3)cc1 (stereo unspecified) | 160 to 162
69 | O=C1c2ccccc2C(=O)C2(CC3CCCC(C(F)(F)F)C3)OC12 (stereo unspecified) | 85
70 | O=C(CNc1c(C(=O)O)[nH]c2cc(Cl)cc(Cl)c12)c1cccc(F)c1 | 270 to 280
71 | COc1ccc(C2SC(=O)NC2C(=O)NCCO[N+](=O)[O-])cc1 (stereo unspecified) | 142 to 143

Source: a melting point compilation (Tetko et al.; mined from patent text by program, amines drawn as free bases though some values may be those of a salt)
